Legend:
[1] = oral glucose tolerance test (oGTT) before and after 4 weeks of treatment; assay type: in vivo, Frauen; settings: 50 mg/Tag oral
Procedure: (§1) Die folgenden Untersuchungen wurden an vier gegenüber Insulin resistenten Frauen durchgeführt, welche ein Hyperandrogenämie litten. Das Alter der Frauen lag zwischen 16 und 33 Jahren und ihr Körpermasseindex (Body mass Index - BMI) reichte von 28 bis 41. Die Hyperandrogenämie wurde durch Bestimmung von LH, FSH, Prolactin, Testosteron, freien Testosteronen, SHBG und DHEAS im Serum diagnostiziert. Vor der Behandlung lagen die Testosteronwerte zwischen 0,4 und 1,65 ng/ml und die Insulinkonzentrationen betrugen von 25 bis 62 mcU/ml.
Die Insulinresistenz wurde durch orale Verabreichung von 400 ml einer Lösung nachgewiesen, welche eine Mono-Oligosaccharidmischung enthielt, die nach enzymatischer Hydrolyse im Gastrointestinaltrakt 100 g Glucose lieferte (Dextro-oGTT, Boehringer Mannheim). Während des oralen Glucose-Toleranz-Tests (oGTT) wurden vor der Kohlenhydratbelastung und danach 3 Stunden lang im Abstand von jeweils 15 Minuten Blutproben entnommen. In allen Proben wurde die Glucosekonzentration mit dem Hexokinase/Glucose-6-Phosphatdehydrogenase-Verfahren bestimmt. Ferner wurden die Insulin- und C-Peptidkonzentrationen mit handelsüblichen Radioimmun-Kits (Serono Diagnostic, Freiburg) bestimmt. Die Ergebnisse des oGTT wurden ausgewertet, indem das Verhältnis von Insulin zu Glucose berechnet wurde und die Flächen unter den Glucose-, Insulin- und C-Peptid-Kurven während des oGTT bestimmt wurden (vgl. Figur 1).
(§2) Als Opiat-Antagonist wurde Naltrexon (Ferring Arzneimittel GmbH, Kiel) in einer Dosis von 50 mg/Tag oral verabreicht. 4 Wochen nach Beginn der Naltrexon-Behandlung wurde nach dem gleichen Verfahren wie oben beschrieben ein zweiter oGTT durchgeführt und die Ergebnisse dieses Tests mit den vor Beginn der Behandlung erhaltenen Ergebnissen verglichen, wobei die Proben paarweise einem t-Test unterworfen wurden.

[2] = serum androgen and pituitary hormone levels during treatment; assay type: in vivo, Frauen; settings: 50 mg/Tag oral
Procedure: as §1, §2
Im Gegensatz dazu blieben die Androgenkonzentrationen sowie die LH-, FSH- und Prolactin-Spiegel durch die Naltrexon-Behandlung unbeeinflußt.

[3] = side effects / tolerability during treatment; assay type: in vivo, Frauen; settings: 50 mg/Tag oral
[4] = general statement, no data; cited from earlier work

Which results are given for `O=C1CC[C@@]2(O)[C@H]3Cc4ccc(O)c5c4[C@@]2(CCN3CC2CC2)C1O5` (stereo partly drawn) [Naltrexon, 17-(Cyclopropylmethyl)-4,5-epoxy-3,14-dihydroxymorphinan-6-on]?
Verhältnis von Insulin zu Glucose ([1]; oGTT): sank; molare Verhältnis von C-Peptid zu Insulin ([1]; oGTT): stieg; Konzentration von C-Peptid ([1]; oGTT, reduced, but not to the same extent as insulin): reduziert; Insulinspiegel nach Kohlenhydratbelastung ([1]; four insulin-resistant hyperandrogenaemic women, oGTT vs. before treatment): beeindruckende Senkung; Androgenkonzentrationen [2]: unbeeinflußt; FSH-Spiegel [2]: unbeeinflußt; LH-Spiegel [2]: unbeeinflußt; Prolactin-Spiegel [2]: unbeeinflußt; Veränderungen des Blutbildes, der Leberenzyme und des Nierenstatus [3]: nicht beobachtet; Nebenwirkungen ([3]; one of four patients): Übelkeit mit Erbrechen und leichten Kopfschmerzen; Verträglichkeit ([3]; three of four patients): gut vertragen; Verweildauer im Plasma [4]: lange

— patent publication EP0541192A1, “Use of opiate antagonists for the treatment of endogen hyperinsulinemia” (Ferring Arzneimittel GmbH, priority 1991, dated 1993)
